From patent US9914722B2, “Compounds for treating spinal muscular atrophy” (PTC Therapeutics Inc., priority 2012, dated 2018)

Tested on: Smn protein
Assay: Smn protein assay (Smn HTRF) in cultured cells
Type: cell-based, human
Settings: for maximal fold induction / EC (1.5-fold): Homo sapiens, Fibroblast, GM03813 SMA Type 1 patient fibroblasts, 48 hours, HTRF; for maximal fold induction: 7-point concentration data, relative to vehicle, read-out: maximum fold (Fold) increase of Smn protein; for EC (1.5-fold): concentration producing 1.5 times Smn protein vs DMSO vehicle, read-out: EC1.5x for Smn protein expression; for Smn protein expression: SMA Type 1 patient fibroblast cells, 48 hour, SMN HTRF assay, FIG. 6
Procedure, shortened: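 SMA patient fibroblasts (5,000/well) were exposed to a 7-point, 3.16-fold compound dilution series for 48 hours at 37° C, in triplicate. Lysates were read by HTRF with anti-SMN d2/kryptate at 665/620 nm. Blank-corrected signal was expressed as fold over DMSO vehicle, giving the EC1.5x and the maximum fold increase.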

Structure (SMILES)	maximal fold induction	EC (1.5-fold) [µM]	Smn protein expression
C[C@@H]1CN(c2ccc3oc(-c4cn5ccccc5n4)cc(=O)c3c2)C[C@H](C)N1 [Cpd 17, 6-[(3R,5S)-3,5-dimethylpiperazin-1-yl]-2-(imidazo[1,2-a]pyridin-2-yl)-4H-chromen-4-one]	> 1.65	1 to 3	dose dependent increase in Smn protein expression
COc1ccc(-c2cc(=O)c3cc(N4CCN[C@@H](C)C4)ccc3o2)cc1F [Cpd 38, 2-(3-fluoro-4-methoxyphenyl)-6-[(3S)-3-methylpiperazin-1-yl]-4H-chromen-4-one]	1.5 to 1.65	0.3 to 1	dose dependent increase in Smn protein expression
